Measured values reported in the supplement of paper PMC4862054.

How the values were obtained:
Settings in all cases: incubation time: 72 h
HCC1143 [1] = test: drug sensitivity score (DSS), CellTox Green (DSS (AUC-based score)); higher = stronger drug effect (viability inhibition or cytotoxicity); extreme values may be limits of the assay
How it was run: (§1)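 For 72 h, breast cancer cell lines seeded at 20 µl suspension per well in 384-well plates were incubated with compound at 5 concentrations in 10-fold steps spanning a 10,000-fold range that differed by compound. The first reading was CellTox Green fluorescence at 485/520 nm, and the second was CellTiter-Glo luminescence after 10 min at room temperature. Both were normalised per plate to 0.1 % DMSO and a positive kill control, and the drug sensitivity score was obtained from the area under the fitted dose-response curve.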

CAL-148 [2] = test: as above
How it was run: as §1

Hs578T [3] = test: as above
How it was run: as §1

HCC1599 [4] = test: as above
How it was run: as §1

CAL-51 [5] = test: as above
How it was run: as §1

HCC1937 [6] = test: as above
How it was run: as §1

MDA-MB-231 [7] = test: as above
How it was run: as §1

MCF-10A = test: as above
How it was run: as §1

MDA-MB-453 [8] = test: as above
How it was run: as §1

HDQ-P1 = test: as above
How it was run: as §1

MDA-MB-468 [9] = test: as above
How it was run: as §1

BT-474 [10] = test: as above
How it was run: as §1

DU-4475 [11] = test: as above
How it was run: as §1

MFM-223 = test: normalised viability (% of control), CellTiter-Blue; higher = more viable cells (about 100 = DMSO control)
Experimental: (§2)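 DSRT, CellTiter-Blue viability, 72 h incubation. Signal is normalised to DMSO and benzethonium chloride controls. Value is the normalised response at dose 3.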

HCC1143 [12] = test: as above
Experimental: as §2

CAL-120 = test: as above
Experimental: as §2

CAL-148 [13] = test: as above
Experimental: as §2

Hs578T [14] = test: as above
Experimental: as §2

HCC1599 [15] = test: as above
Experimental: as §2

CAL-51 [16] = test: as above
Experimental: as §2

HCC1937 [17] = test: as above
Experimental: as §2

MDA-MB-231 [18] = test: as above
Experimental: as §2

MDA-MB-453 [19] = test: as above
Experimental: as §2

CAL-85-1 = test: as above
Experimental: as §2

MDA-MB-436 = test: as above
Experimental: as §2

BT-549 = test: as above
Experimental: as §2

MDA-MB-468 [20] = test: as above
Experimental: as §2

BT-474 [21] = test: as above
Experimental: as §2

DU-4475 [22] = test: as above
Experimental: as §2

Row | SMILES | drug sensitivity score (HCC1143 [1]) | drug sensitivity score (CAL-148 [2]) | drug sensitivity score (Hs578T [3]) | drug sensitivity score (HCC1599 [4]) | drug sensitivity score (CAL-51 [5]) | drug sensitivity score (HCC1937 [6]) | drug sensitivity score (MDA-MB-231 [7]) | drug sensitivity score (MCF-10A) | drug sensitivity score (MDA-MB-453 [8]) | drug sensitivity score (HDQ-P1) | drug sensitivity score (MDA-MB-468 [9]) | drug sensitivity score (BT-474 [10]) | drug sensitivity score (DU-4475 [11]) | normalised viability (MFM-223; 10 nM) | normalised viability (HCC1143 [12]; 10 nM) | normalised viability (CAL-120; 10 nM) | normalised viability (CAL-148 [13]; 1 nM) | normalised viability (Hs578T [14]; 10 nM) | normalised viability (HCC1599 [15]; 10 nM) | normalised viability (CAL-51 [16]; 1 nM) | further results
1 | CCN(CC)CCCC(C)Nc1ccnc2cc(Cl)ccc12 (centres undefined) [Chloroquine] | 0 | 11.8 | 8.48 | 2.54 | 3.75 | 5.9 | 11.6 | 7.9 | 9.85 | 5.48 | 27.3 | 14.7 | 1.64 | – | – | – | – | – | – | – | normalised viability (MFM-223; 9.9 nM): 98.2%; normalised viability (HCC1143 [12]; 9.9 nM): 87.7%; normalised viability (CAL-120; 9.9 nM): 102%; normalised viability (CAL-148 [13]; 0.99 nM): 85%; normalised viability (Hs578T [14]; 9.9 nM): 90.2%; normalised viability (HCC1599 [15]; 9.9 nM): 128%; normalised viability (CAL-51 [16]; 0.99 nM): 90.3%; normalised viability (HCC1937 [17]; 9.9 nM): 115%; normalised viability (MDA-MB-231 [18]; 9.9 nM): 107%; normalised viability (MDA-MB-453 [19]; 0.99 nM): 100%; normalised viability (CAL-85-1; 0.99 nM): 94.8%; normalised viability (MDA-MB-436; 9.9 nM): 117%; normalised viability (BT-549; 9.9 nM): 104%; normalised viability (MDA-MB-468 [20]; 9.9 nM): 105%; normalised viability (BT-474 [21]; 9.9 nM): 104%; normalised viability (DU-4475 [22]; 0.99 nM): 98.2%
2 | CCNC(=O)c1noc(-c2cc(C(C)C)c(O)cc2O)c1-c1ccc(CN2CCOCC2)cc1 [NVP-AUY922] | 0 | 12.7 | 6.88 | 0 | 6.99 | 0.92 | 12.6 | 13.6 | 0.086 | 6 | 0 | 3.93 | 5.69 | 41.1% | 100% | 46.6% | 103% | 37.3% | 112% | 102% | normalised viability (HCC1937 [17]; 10 nM): 37.8%; normalised viability (MDA-MB-231 [18]; 10 nM): 56.5%; normalised viability (MDA-MB-453 [19]; 1 nM): 119%; normalised viability (CAL-85-1; 1 nM): 96%; normalised viability (MDA-MB-436; 10 nM): 58.5%; normalised viability (BT-549; 10 nM): 42.2%; normalised viability (MDA-MB-468 [20]; 10 nM): 51.6%; normalised viability (BT-474 [21]; 10 nM): 86.1%; normalised viability (DU-4475 [22]; 1 nM): 115%
3 | CNC(=O)c1ccccc1Sc1ccc2c(/C=C/c3ccccn3)n[nH]c2c1 [Axitinib] | 0 | 2.44 | 0 | 0 | 6.53 | 0 | 0 | 0 | 0 | 0 | 0 | 0 | 0 | – | – | – | – | – | – | – | normalised viability (MFM-223; 100 nM): 82.6%; normalised viability (HCC1143 [12]; 100 nM): 101%; normalised viability (CAL-120; 100 nM): 96.8%; normalised viability (CAL-148 [13]; 10 nM): 98%; normalised viability (Hs578T [14]; 100 nM): 73.2%; normalised viability (HCC1599 [15]; 100 nM): 89.7%; normalised viability (CAL-51 [16]; 10 nM): 107%; normalised viability (HCC1937 [17]; 100 nM): 118%; normalised viability (MDA-MB-231 [18]; 100 nM): 102%; normalised viability (MDA-MB-453 [19]; 10 nM): 104%; normalised viability (CAL-85-1; 10 nM): 96%; normalised viability (MDA-MB-436; 100 nM): 70%; normalised viability (BT-549; 100 nM): 113%; normalised viability (MDA-MB-468 [20]; 100 nM): 101%; normalised viability (BT-474 [21]; 100 nM): 114%; normalised viability (DU-4475 [22]; 10 nM): 113%
4 | Nc1ccn([C@@H]2O[C@H](CO)[C@@H](O)C2(F)F)c(=O)n1 [Gemcitabine] | 0 | 11.2 | 0 | 0 | 13.4 | 0 | 0 | 0 | 0 | 0 | 19.7 | 0 | 0 | 92.6% | 70.7% | 67.3% | 106% | 82.1% | 88.8% | 105% | normalised viability (HCC1937 [17]; 10 nM): 63.7%; normalised viability (MDA-MB-231 [18]; 10 nM): 77.9%; normalised viability (MDA-MB-453 [19]; 1 nM): 111%; normalised viability (CAL-85-1; 1 nM): 93.2%; normalised viability (MDA-MB-436; 10 nM): 94.3%; normalised viability (BT-549; 10 nM): 84%; normalised viability (MDA-MB-468 [20]; 10 nM): 68.9%; normalised viability (BT-474 [21]; 10 nM): 101%; normalised viability (DU-4475 [22]; 1 nM): 116%
5 | C=CCn1c(=O)c2cnc(Nc3ccc(N4CCN(C)CC4)cc3)nc2n1-c1cccc(C(C)(C)O)n1 [MK1775] | 3.3 | 21.1 | 9.43 | 4.9 | 15.7 | 0 | 19.8 | 8.71 | 0 | 9.56 | 11.1 | 6.62 | 0 | – | – | – | – | – | – | – | normalised viability (MFM-223; 100 nM): 83.3%; normalised viability (HCC1143 [12]; 100 nM): 94.8%; normalised viability (CAL-120; 100 nM): 75.8%; normalised viability (CAL-148 [13]; 10 nM): 87.4%; normalised viability (Hs578T [14]; 100 nM): 83.2%; normalised viability (HCC1599 [15]; 100 nM): 99.4%; normalised viability (CAL-51 [16]; 10 nM): 94.1%; normalised viability (HCC1937 [17]; 100 nM): 78.2%; normalised viability (MDA-MB-231 [18]; 100 nM): 88.1%; normalised viability (MDA-MB-453 [19]; 10 nM): 100%; normalised viability (CAL-85-1; 10 nM): 81.4%; normalised viability (MDA-MB-436; 100 nM): 86.3%; normalised viability (BT-549; 100 nM): 97.4%; normalised viability (MDA-MB-468 [20]; 100 nM): 95.5%; normalised viability (BT-474 [21]; 100 nM): 94.6%; normalised viability (DU-4475 [22]; 10 nM): 109%
6 | CC(=O)[C@]1(O)Cc2c(O)c3c(c(O)c2[C@@H](O[C@H]2C[C@H](N)[C@H](O)[C@H](C)O2)C1)C(=O)c1ccccc1C3=O [Idarubicin] | 0 | 12.7 | 0 | 0 | 9.49 | 0 | 0 | 1.59 | 0 | 0 | 10.5 | 4.95 | 0.488 | 103% | 103% | 70.1% | 93.9% | 72.8% | 97.2% | 105% | normalised viability (HCC1937 [17]; 10 nM): 47.2%; normalised viability (MDA-MB-231 [18]; 10 nM): 102%; normalised viability (MDA-MB-453 [19]; 1 nM): 98%; normalised viability (CAL-85-1; 1 nM): 92.3%; normalised viability (MDA-MB-436; 10 nM): 106%; normalised viability (BT-549; 10 nM): 82.6%; normalised viability (MDA-MB-468 [20]; 10 nM): 73.3%; normalised viability (BT-474 [21]; 10 nM): 113%; normalised viability (DU-4475 [22]; 1 nM): 98%
